Data as given in patent US20170072012A1, “USE OF GSMTX4 TO REDUCE ISCHEMIA REPERFUSION INJURY” (priority 2014, published 2017).
Where a SMILES comes first, the peptide text is derived from it. Bridges are numbered along the chain shown (N, C = ends). [ ]: non-standard residue; d: D form.

Tests used:
[1] = test system: ischemic reperfusion injury in mouse heart; assay: In vivo pressure-volume relationships after I/R (left ventricular catheterization); parameters: species or system C57B1/6J mice; settings: 50 mg/kg IP pretreatment, 24 h reperfusion
Procedure: In order to determine hemodynamic differences, we measured the pressure-volume (P-V) relationships in real time in 3 groups of mice, including a sham group that was exposed to the open heart operation but not FR, and the two I/R (20min ischemia/24h reperfusion) induced groups pretreated with either vehicle or GsMTx4-D. To measure the P-V relationships, mice were anesthetized with 4% isoflurane and 100% O2, quickly intubated and ventilated with a respirator. […] The rib cage was slightly retracted and the diaphragm was gently cut away to attain an apical view of the myocardium. A 27-gauge needle was inserted into the apex of the LV free wall to create a guide-hole. A 1.2-French microtransducer pressure-volume impedance catheter (Scisense, London, ON, CA) was then inserted into the lumen of LV to assess real-time LV function. Hemodynamic parameters such as heart rate, cardiac output, and ejection fraction were measured and calculated with the iWorx software (Dover, N.H.). Each group included 5 (sham and GsMTx4-D) to 6 (vehicle) independent experiments.
To examine the effects of GsMTx4-D on hemodynamics, we compared the P-V relationships between the GsMTx4-D (50 mg/kg) and vehicle (saline 50 μL) in pretreated mice. After 20 min of ischemia followed by 24 h reperfusion, the left ventricle was catheterized to acquire real time P-V relationships (FIG. 3). […] In addition, GsMTx4-D produced improvements in both end systolic and diastolic volumes (FIG. 3 H and I) that led to a significant improvement in ejection fraction (61.7±3.4%, P<0.05) (FIG.3 G). Clearly, GsMTx4-D improves heart function after FR.

[2] = test system: I/R induced arrhythmias in mouse heart; assay: Heart rhythm analysis (ECG) during reperfusion, I/R induced arrhythmia; assay type: in vivo, C57B1/6J mice; settings: for total incidence of arrhythmias (ventricular and supraventricular premature beats): vehicle 14.9±4.5; for mean heart rate during the 15 min of reperfusion: vehicle 162.9±13.2
Procedure: During reperfusion we continuously recorded ECGs, from which mean heart rate, PR, QRS, and QT intervals were derived for each animal. We evaluated the incidence of arrhythmias by counting the incidences of arrhythmias including ventricular and supraventricular premature beats by summing the number of episodes based on limb lead recordings for 15 min after reperfusion. Ventricular premature beats are considered more severe. Each group contained 5 to 7 independent experiments (vehicle n=7, verapamil n=6, GsMTx4-D 0.1mg/kg n=5, 1 mg/kg n=6 and 10 mg/kg n=5).
Heart rate and rhythm were monitored by ECG to confirm the hallmark ischemic ST-segment elevation during coronary occlusion, and the gradually increasing inversion of the T-wave during reperfusion (FIG. 4A). Since generation of arrhythmias is a good indicator of the level of I/R damage, we counted ventricular and supraventricular premature beats occurring within 15 min of reperfusion (FIG. 4B). No ventricular tachycardia was observed during 20 min ischemia and 15 min reperfusion in the mouse heart. […] Considering that ventricular premature beats are indicative of more severe damage, the incidence of this specific arrhythmia was analyzed separately (FIG. 4 D). […] There was no difference in mean heart rate before ischemia (FIG. 4E). […] There was no difference in PR, QRS or QT intervals after treatment in all groups (data not shown).

[3] = Single-dose pharmacokinetic study, plasma and heart concentration by LC/MS/MS; assay type: in vivo, CD-1 mice; settings: based on the PK analysis

Compound `CC(C)C[C@H]1NC(=O)[C@H](NC(=O)CN)CSSC[C@H]2NC(=O)[C@H]3CSSC[C@H](C(=O)N[C@H](CC(N)=O)C(=O)N[C@H](Cc4ccccc4)C(=O)N[C@H](CO)C(=O)N[C@H](Cc4ccccc4)C(N)=O)NC(=O)[C@@H](CC(C)C)NC(=O)[C@@H](CCCCN)NC(=O)[C@@H](Cc4ccccc4)NC(=O)[C@@H](CC(C)C)NC(=O)[C@@H](CCCCN)NC(=O)[C@@H](CO)NC(=O)[C@@H](CSSC[C@@H](NC(=O)[C@@H](CCCCN)NC(=O)[C@@H](Cc4c[nH]c5ccccc45)NC(=O)[C@@H](Cc4c[nH]c5ccccc45)NC(=O)[C@@H](Cc4ccccc4)NC(=O)[C@@H](CCC(=O)O)NC1=O)C(=O)N[C@H](CC(N)=O)C(=O)N1CCC[C@@H]1C(=O)N[C@H](CC(N)=O)C(=O)N[C@H](CC(=O)O)C(=O)N[C@H](CC(=O)O)C(=O)N[C@H](CCCCN)C(=O)N3)NC(=O)[C@@H](CCCCN)NC(=O)[C@@H](CC(C)C)NC(=O)[C@@H](CCCCN)NC(=O)[C@H]1CCCN1C(=O)[C@@H](CCCNC(=N)N)NC2=O` [GsMTx4-D] (H-G[dC][dL][dE][dF][dW][dW][dK][dC][dN][dP][dN][dD][dD][dK][dC][dC][dR][dP][dK][dL][dK][dC][dS][dK][dL][dF][dK][dL][dC][dN][dF][dS][dF]-NH2; disulfide 2-17, 9-23, 16-30 (inferred); N-terminus and C-terminus assumed) has a stroke volume ([1]; vehicle 18.9±2.3, sham 26.7±1.9) of 26.2 ± 1.9 µL, an ejection fraction ([1]; vehicle 44.4±4.9, sham 75.5±6.4) of 61.7±3.4% and a heart rate ([1]; vehicle 243.9±6.9, sham 304.0±23.6) of 298.7±14.3 bpm. For the same compound, the cardiac output ([1]; vehicle 4636±602, sham 8039±690) was 77580 ± 321 µL/min, the “end systolic and diastolic volumes” value ([1]; vs vehicle) was “improvements” and the “total incidence of arrhythmias (ventricular and supraventricular premature beats)” value (“total incidence of arrhythmias” for short) ([2]; 0.1 mg/kg IV 5 min before reperfusion, not significantly different) was 10.4±6 incidence/15 min reperfusion. The “total incidence of arrhythmias” value ([2]; 1 mg/kg IV 5 min before reperfusion) was 2.3±0.7 incidence/15 min reperfusion, the “mean heart rate during the 15 min of reperfusion” value ([2]; 1 mg/kg IV) was 255.7±33.4 and the ventricular premature beats ([2]; 1 mg/kg IV, within 15 min of reperfusion, vehicle 5.7±1.8) was 1.3±0.4. For the same compound, the “total incidence of arrhythmias” value ([2]; 10 mg/kg IV 5 min before reperfusion) was 2.2±1.0 incidence/15 min reperfusion, the “mean heart rate during the 15 min of reperfusion” value ([2]; 10 mg/kg IV) was 286.1±25.0 and the “predicted concentration in the heart at the time of reperfusion” value ([3]; after the 1 mg/kg IV injection during ischemia) was under 0.5 µM. The “predicted concentration in the heart at the time of reperfusion” value ([3]; after two IP pretreatments (50 mg/kg)) was 1 to 2 µM.
